The text below walks through data of patent US20220079915A1, “IMMUNOSUPPRESSIVE PHARMACEUTICAL COMPOSITION AND APPLICATION THEREOF” (Shanghai Archeus Biotech Co., Ltd., priority 2018, published 2022).

In one data set the test system is cAMP. The conditions noted are these: source [1]; cited from earlier work.
A further data set concerns myocardial contraction. The conditions noted are these: cited from earlier work; for myocardial contraction activity, equivalent to % of forskolin: source [2]; for myocardial contraction activity EC50: sources [7], [8].
The conditions of data set [1]: cited from earlier work; for antihypertensive effect, equivalent to % of forskolin: source [2].
For data set [2] the following is noted: of 6-[3-(dimethylamino)propionyl]forskolin; sources [3], [4]; cited from earlier work.
For data set [3], the system named is systolic blood pressure (SBP), diastolic blood pressure (DBP), heart rate (HR). The conditions noted are these: source [3]; cited from earlier work.
Data set [4] has as its system guinea pig myocardial contraction. The conditions noted are these: source [5]; cited from earlier work.
For a further data set, the system named is IL-17A. Put plainly: IL-17A secretion of mouse spleen Naïve CD4+ T cells induced to differentiate to Th17 cells by cytokines, ELISA. The format is cell-based. The method, then: 1) Pre-coated the 96-well plate with 2 μg/mL anti-mouse CD3e and incubated overnight at 4 degrees Celsius: 2) Separated fresh spleens from adult C57BL/6 female mice (8-12 weeks old), ground and filtered through a […] nylon cell strainer to obtain a single cell suspension in pre-cooled DPBS; 3) Washed the spleen cells again with DPBS, and resuspended in RoboSep™ buffer at a density of 1×10^8/mL; 4) Separated primary CD4+ T cells with mouse primary CD4+ T cell isolation kit as required by the kit; 5) Resuspended the isolated CD4+ T cells in complete medium (RPMI 1640 medium+10% inactivated FBS+1% double antibiotics) at a density of 1×10^6/mL; 6) Washed the 96-well plate pre-coated with anti-mouse CD3e twice with DPBS, added 50 μL of cytokine cocktail, the composition and final concentration of which are shown in Table 6 below, and then added 50 μL of compound solution (the final concentration of DMSO was 0.1%). Added 100 μL of cell suspension to each well to allow the final cell number per well to be 1×10^5/100 μL; [table] 7) Cultured the cells for 7 days under the above conditions. The culture conditions were 37 degrees Celsius, 5% CO2 concentration; 8) After 7 days, added 1× stimulation cocktail (eBioscience 500X) to the culture medium for 4 hours, and then collected cell culture supernatant for detection with IL-17A enzyme-linked immunoassay kit; 9) Completed the detection of supernatant IL-17A concentration with mouse IL-17 DuoSet ELISA kit; 10) Read the OD450 nm absorbance value with a microplate reader, and generated the standard curve by using the 4-parameter logistic fitting (4-PL) method. 1) Diluted the capture antibody (provided in the kit) to a working concentration in PBS without carrier protein, that is, a 96-well plate can be coated with 100 microliters per well. Sealed and incubated the plate overnight at room temperature; 2) Aspirated the coating buffer of the well plate, and eluted with 400 microliters of eluent (provided in the kit) for three times, aspirating as much liquid as possible each time; 3) Added 300 microliters of diluent (provided in the kit) to each well, and equilibrated for 1 hour at room temperature; 4) Eluted the well plate as in the above step 2) to be ready for the addition of sample; ) Added 100 microliters of sample or standard to each well containing the added diluent, and sealed and incubated the well plate for 2 hours at room temperature; 6) Eluted the well plate as in the above step 2); 7) Added 100 microliters of detector antibody (provided in the kit) to each well, and sealed and incubated the well plate for 2 hours at room temperature. 8) Eluted the well plate as in the above step 2); 9) Added 100 microliters of Streptavidin-HRP working solution (provided in the kit) to each well, and sealed and incubated the well plate in dark for 20 minutes at room temperature. 10) Eluted the well plate as in the above step 2); 11) Added 100 microliters of reaction substrate solution (provided in the kit) to each well, and incubated at room temperature for 20 minutes, protected from light: 12) Added 50 microliters of stop solution (provided in the kit) to each well, and tapped the well plate to ensure that the liquid is evenly mixed; 13) Detected the optical density value of each well at […]. The values could be corrected by deducting the values at 540 nm or 570 nm.
In general terms: ELISA stands for enzyme-linked immunosorbent assay.

Another data set concerns TNF-α. Put plainly: LPS-induced TNF-α secretion in THP-1 cells, ELISA of culture supernatant. It counts as cell-based, human. The conditions noted are these: for TNF-α treatment value, B: relative to control. The protocol:
1) Recoveried and expanded THP-1 cells in a T75 culture flask. The growth medium was 10 milliliters of 10% fetal bovine serun/RPMI1640 (already containing 2 mM glutamine)/1% double antibiotics in each flask. Observed the cells under an invert microscope, and, when the cells were in the logarithmic growth phase, started the following drug treatment experiments; 2) Cultured 2*10e5/mL THP-1 cells in a 96-well culture plate with 100 microliters of growth medium (10% fetal bovine serum/RPMI640/1% double antibiotics) per well, and added 100 ng/ml PMA to incubate for 24 hour; 3) Eluted the non-adherent cells once with 300 microliters of fresh growth medium of 10% fetal bovine serum/RPMI1640/1% double antibiotics; 4) Added 200 microliters of growth medium of 10% fetal bovine serum/RPMI1640/1% double antibiotics, with/without test compound, to pre-incubate the cells at 37° C. for 2 hours; 5) Then added 100 ng/mL lipopolysaccharide (LPS) and incubated at 37° C. for 4 hours: 6) Collected 50 microliters of cell culture supernatant for the detection of the levels of related cytokines by enzyme-linked immunoassay, or stored it in a refrigerator at minus 80 degrees Celsius for future detection; 1) Prepared 1× elution buffer for enzyme-linked immunoassay. Prepared it with ultrapure water: 10× elution buffer mother solution=9:1 in volume ratio for use; 2) Prepared the antibody cocktail for enzyme-linked immunoassay. Prepared it with the antibody diluent (provided by Ab221825):antibody 1:antibody 2=18:1:1 in volume ratio for use. Antibody 1 was a TNF-α capture antibody and Antibody 2 was a TNF-α detector antibody. They were all supplied by kit Ab221825; 3) Prepared a series of concentration gradient samples of TNF-α standard with ultrapure water for the plotting of reaction standard curve and determining the linear range of detection signal; 4) Added 50 microliters of cell culture supernatant/standard and 50 microliters of the above antibody cocktail to a 96-well plate used for enzymatic reaction, sealed it with a film, placed it on a horizontal shaker, and incubated at 400 rpm for 1 hour at room temperature to allow the antibody-antigen complex was fully bound and coupled at the bottom of the well plate; 5) Discarded the supernatant, eluted with 350 microliters of 1× elution buffer/well for 3 times. In the last elution, put the well plate upside down on an absorbent paper and sucked and washed it thoroughly; 6) Added 100 microliters of TMB substrate solution (supplied by Ab221825) to each well, placed them on a horizontal shaker and incubated in the dark at room temperature for 5 minutes at a speed of 400 rpm; 7) Added 100 microliters of reaction stop solution (provided by Ab221825), placed on a horizontal shaker and mix at 400 rpm for 1 minute; 8) Detected the absorbance at 450 nm with a microplate reader.

Data set [5] concerns the target adenylate cyclase in rat cerebral cortex. The conditions noted are these: source [8]; read-out: activation of adenylate cyclase in rat cerebral cortex EC50; cited from earlier work.
The conditions of data set [6]: cited from earlier work.
For the next data set, the system named is psoriasis. Conditions: 4 patients with psoriasis; PCT/US84/00291; cited from earlier work.

Regarding `C=C[C@@]1(C)CC(=O)C2(O)[C@@]3(C)C(O)CCC(C)(C)C3[C@H](OC(=O)CCCN)C(OC(C)=O)[C@@]2(C)O1` (stereo partly shown) [6-(4-aminobutyryl)forskolin], the cAMP activation in the data set on cAMP is recorded as 214.9%. Besides, the myocardial contraction activity in the data set on myocardial contraction (source [1]) is recorded as 0.9 dp/dt. In addition, the antihypertensive effect in [1] (source [1]) is on record as 0.7.

Consider `C=C[C@@]1(C)CC(=O)C2(O)[C@@]3(C)C(O)CCC(C)(C)C3[C@H](OC(=O)CCN(C)C)C(OC(C)=O)[C@@]2(C)O1` (stereo partly shown) [6-[3-(dimethylamino)propionyl]forskolin], for which the “myocardial contraction activity, equivalent to % of forskolin” value in the data set with myocardial contraction is 120 % of forskolin. Further, in [1], the “antihypertensive effect, equivalent to % of forskolin” value is given as 80 % of forskolin.

Regarding `C=C[C@@]1(C)CC(=O)C2(O)[C@@]3(C)[C@@H](O)CCC(C)(C)[C@@H]3[C@H](OC(=O)CCNC)[C@H](OC(C)=O)[C@@]2(C)C1` (stereo partly shown) [6-[3-(methylamino)propionyl]forskolin], the metabolite status result in data set [2] was “in vivo active metabolite”. The “beagle dog's systolic blood pressure (SBP), diastolic blood pressure (DBP), heart rate (HR) and other effects” value in [3] was “equivalent to 6-[3- (dimethylamino)- propionyl]forskolin”.

As for `C=C[C@@]1(C)CC(=O)C2(O)[C@@]3(C)[C@@H](O)CCC(C)(C)[C@@H]3[C@H](OC(=O)CCN)[C@H](OC(C)=O)[C@@]2(C)C1` (stereo partly shown) [6-[3-aminopropionyl]forskolin], the metabolite status entry in [2] was “in vivo active metabolite of 6-[3- (dimethylamino)- propionyl]forskolin”.

As for `C=C[C@@]1(C)CC(=O)C2(O)[C@@]3(C)C(O)CCC(C)(C)C3[C@H](OC(=O)CCCN(C)C)C(OC(C)=O)[C@@]2(C)O1` (stereo partly shown) [6-[4-(dimethylamino)butyryl]forskolin], the “myocardial contraction activity, equivalent to % of forskolin” value in the data set with myocardial contraction is 100 % of forskolin. In addition, the “antihypertensive effect, equivalent to % of forskolin” value in [1] is given as 90 % of forskolin.

`C=CC1(C)CC(=O)C2(O)C(C)(O1)C(O)C(OC(=O)CN1CCCCC1)C1C(C)(C)CCC(O)C12C` (stereo not shown) [6-[(piperidino)acetyl]-7-desacetyl forskolin]: the “guinea pig myocardial contraction activity EC50” value in data set [4] is recorded as “guinea pig myocardial contraction activity EC50: 1.8 μg/mL”.

As for `C=C[C@@]1(C)CC(=O)[C@]2(O)C3(C)C(C(O)C(OC(=O)COC=O)[C@@]2(C)O1)C(C)(C)CC[C@@H]3O` (stereo partly shown) [7-(2-formyloxy)forskolin], in the data set with myocardial contraction, the “myocardial contraction activity EC50” value was “myocardial contraction activity EC50 = 0.002 μg/mL”.

With `CCCCC[C@H](O)/C=C/[C@H]1[C@H](O)CC(=O)[C@@H]1C/C=C\CCCC(=O)O` [PGE2, prostaglandin E2, reference compound], in the data set on IL-17A (3 μM PGE2 alone, FIG. 10), the “IL-17A, % of the basic level” value is on record as 17%. Besides, the “IL-17A treatment value, B” value in the data set with IL-17A (Table 7, relative to control, 3 μM PGE2) is 17%. In the data set with TNF-α (10 μM PGE2 alone, FIG. 4), the “effect on secretion and expression of TNF-α” value is “inhibited the secretion and expression of TNF-α to a certain extent”. Besides, the “TNF-α treatment value, B” value with TNF-α (Table 3, 10 μM PGE2) was 46%.

What is called EC50 is the concentration at which the effect is half-maximal. Turning to `C=C[C@@]1(C)CC(=O)[C@]2(O)[C@@]3(C)[C@@H](O)CCC(C)(C)[C@@H]3[C@H](O)[C@H](OC(C)=O)[C@@]2(C)O1` [forskolin], the EC50 in data set [5] was 8 µM. In addition, the water solubility entry in data set [6] was “poor”. In addition, the “drug activity in reducing TNF-α” value with TNF-α (FIG. 2, compared with 6-[3-(dimethylamino)propionyl]forskolin hydrochloride) is “slightly lower than the aforementioned compound”. In the data set on psoriasis, the “effect on pathological symptoms of psoriasis” value was “relieved the pathological symptoms”. For the same compound, in the data set on myocardial contraction, the “myocardial contraction activity EC50” value was 0.02 µg/mL.

Regarding `C[C@]12CCC(=O)C=C1CC[C@@H]1[C@@H]2[C@@H](O)C[C@@]2(C)[C@H]1CC[C@]2(O)C(=O)CO` [hydrocortisone, reference compound], the “reduction of the IL-17A level, % of the basic level” value with IL-17A (3 μM hydrocortisone alone, FIG. 12) is recorded as 38%. In addition, the “IL17-A treatment value, B” value in the data set with IL-17A (Table 8, relative to control, 3 μM hydrocortisone) amounted to 62%. The “effect on TNF-α” value in the data set with TNF-α (30 μM hydrocortisone alone, pre-incubated 2 hours before LPS, FIG. 6) is listed as “further stimulated the increase of inflammatory factor TNF-α”. In addition, the “TNF-α treatment value, B” value with TNF-α (Table 4, 30 μM hydrocortisone) is 200%.
